Reference: ChEMBL document CHEMBL4765457, “Targeting dual tolerant regions of binding pocket: Discovery of novel morpholine-substituted diarylpyrimidines as potent HIV-1 NNRTIs with significantly improved water solubility” (Eur J Med Chem, 2020)

How the values were obtained:
[1] = system: Human immunodeficiency virus 1; assay: Antiviral activity against HIV1 harboring RT F227L/V106Amutant infected in human MT4 cells assessed as inhibition of virus-induced cytopathic effect incubated for 5 days by MTT assay; format: functional, organism-based; details: Human immunodeficiency virus 1, MT4, 120 h
[2] = Resistance index, ratio of EC50 for antiviral activity against HIV1 expressing RT F227L/V106A mutant infected in human MT4 cells to EC50 for antiviral activity against HIV1 3B infected in human MT4 cells; format: functional
[3] = Resistance index, ratio of EC50 for antiviral activity against HIV1 expressing RT K103N mutant infected in human MT4 cells to EC50 for antiviral activity against HIV1 3B infected in human MT4 cells; format: functional
[4] = Resistance index, ratio of EC50 for antiviral activity against HIV1 expressing RT L100I mutant infected in human MT4 cells to EC50 for antiviral activity against HIV1 3B infected in human MT4 cells; format: functional
[5] = Resistance index, ratio of EC50 for antiviral activity against HIV1 expressing RT Y181C mutant infected in human MT4 cells to EC50 for antiviral activity against HIV1 3B infected in human MT4 cells; format: functional
[6] = Resistance index, ratio of EC50 for antiviral activity against HIV1 expressing RT E138K mutant infected in human MT4 cells to EC50 for antiviral activity against HIV1 3B infected in human MT4 cells; format: functional
[7] = Resistance index, ratio of EC50 for antiviral activity against HIV1 expressing RT Y188L mutant infected in human MT4 cells to EC50 for antiviral activity against HIV1 3B infected in human MT4 cells; format: functional
[8] = system: Human immunodeficiency virus 1; assay: Antiviral activity against HIV1 RES056 infected in human MT4 cells assessed as inhibition of virus-induced cytopathic effect incubated for 5 days by MTT assay; format: functional, organism-based; details: Human immunodeficiency virus 1, RES056, MT4, 120 h
[9] = Selectivity index, ratio of CC50 for human MT4 cells to EC50 for antiviral activity against HIV1 RES056 infected in human MT4 cells; format: toxicity, cell-based; details: read-out: Ratio CC50/EC50
[10] = Selectivity index, ratio of CC50 for human MT4 cells to EC50 for antiviral activity against HIV1 3B infected in human MT4 cells; format: toxicity, cell-based; details: read-out: Ratio CC50/EC50
[11] = Cytotoxicity against human MT4 cells assessed as reduction in cell viability incubated for 5 days by MTT assay; format: cell-based; details: time 5 day
[12] = system: Human immunodeficiency virus 1; assay: Antiviral activity against HIV1 3B infected in human MT4 cells assessed as virus-induced cytopathic effect incubated for 5 days by MTT assay; format: functional, organism-based; details: Human immunodeficiency virus 1, 3B, MT4, 120 h
[13] = system: Human immunodeficiency virus 1; assay: Antiviral activity against HIV1 harboring RT Y188L mutant infected in human MT4 cells assessed as inhibition of virus-induced cytopathic effect incubated for 5 days by MTT assay; format: functional, organism-based; details: Human immunodeficiency virus 1, MT4, 120 h
[14] = system: Human immunodeficiency virus 1; assay: Antiviral activity against HIV1 harboring RT L100I mutant infected in human MT4 cells assessed as inhibition of virus-induced cytopathic effect incubated for 5 days by MTT assay; format: functional, organism-based; details: Human immunodeficiency virus 1, MT4, 120 h
[15] = system: Human immunodeficiency virus 1; assay: Antiviral activity against HIV1 harboring RT K103N mutant infected in human MT4 cells assessed as inhibition of virus-induced cytopathic effect incubated for 5 days by MTT assay; format: functional, organism-based; details: Human immunodeficiency virus 1, MT4, 120 h
[16] = system: Human immunodeficiency virus 1; assay: Antiviral activity against HIV1 harboring RT Y181C mutant infected in human MT4 cells assessed as inhibition of virus-induced cytopathic effect incubated for 5 days by MTT assay; format: functional, organism-based; details: Human immunodeficiency virus 1, MT4, 120 h
[17] = system: Human immunodeficiency virus 1; assay: Antiviral activity against HIV1 harboring RT E138K mutant infected in human MT4 cells assessed as inhibition of virus-induced cytopathic effect incubated for 5 days by MTT assay; format: functional, organism-based; details: Human immunodeficiency virus 1, MT4, 120 h

## Cc1cc(C#N)cc(C)c1Oc1nc(NC2CCN(Cc3ccc(S(N)(=O)=O)cc3)CC2)nc2ccsc12
[1]
  EC50: 0.0042 µM
[2]
  Ratio EC50: 3
[3]
  Ratio EC50: 2
[4]
  Ratio EC50: 2.4
[5]
  Ratio EC50: 2.3
[6]
  Ratio EC50: 2
[7]
  Ratio EC50: 2.1

## Cc1cc(C#N)cc(C)c1Oc1nc(NC2CCN(CCN3CCOCC3)CC2)nc2ccoc12
[8]
  EC50: > 138 µM
[9]
  selectivity ratio: < 1
[10]
  selectivity ratio: 125
[11]
  CC50 at 120 h: 138 µM
[12]
  EC50: 1100 nM

## Cc1cc(C#N)cc(C)c1Oc1nc(NC2CCN(CCN3CCOCC3)CC2)nc2c1SCC2
[8]
  EC50: > 43 µM
[9]
  selectivity ratio: < 1
[10]
  selectivity ratio: 376
[11]
  CC50 at 120 h: 43 µM
[12]
  EC50: 114 nM

## Cc1cc(C#N)cc(C)c1Oc1nc(NC2CCN(CC(=O)N3CCOCC3)CC2)nc2c1CSC2
[1]
  EC50: 41.2 µM
[13]
  EC50: 7.45 µM
[8]
  EC50: > 64.6 µM
[14]
  EC50: 24.4 µM
[9]
  selectivity ratio: < 1
[15]
  EC50: 3.73 µM
[10]
  selectivity ratio: 420
[16]
  EC50: 13.4 µM
[2]
  Ratio EC50: 267.3
[11]
  CC50 at 120 h: 64.6 µM
[3]
  Ratio EC50: 24.2
[4]
  Ratio EC50: 158.7
[5]
  Ratio EC50: 86.9
[12]
  EC50: 154 nM
[6]
  Ratio EC50: 4.1
[7]
  Ratio EC50: 48.4
[17]
  EC50: 627 nM

## Cc1cc(C#N)cc(C)c1Oc1nc(NC2CCN(CCN3CCOCC3)CC2)nc2ccccc12
[8]
  EC50: > 26 µM
[9]
  selectivity ratio: < 1
[10]
  selectivity ratio: 52
[11]
  CC50 at 120 h: 26 µM
[12]
  EC50: 502 nM

## Cc1cc(C#N)cc(C)c1Oc1ccnc(NC2CCN(CCN3CCOCC3)CC2)n1
[8]
  EC50: > 246 µM
[9]
  selectivity ratio: < 1
[10]
  selectivity ratio: 219
[11]
  CC50 at 120 h: 246 µM
[12]
  EC50: 1120 nM

## Cc1cc(C#N)cc(C)c1Oc1nc(NC2CCN(CC(=O)N3CCOCC3)CC2)nc2c1COC2
[8]
  EC50: > 184 µM
[9]
  selectivity ratio: < 1
[10]
  selectivity ratio: 1240
[11]
  CC50 at 120 h: 184 µM
[12]
  EC50: 149 nM

## Cc1cc(C#N)cc(C)c1Oc1nc(NC2CCN(CC(=O)N3CCOCC3)CC2)nc2cc(F)ccc12
[8]
  EC50: > 16.4 µM
[9]
  selectivity ratio: < 2.51
[10]
  selectivity ratio: 71
[11]
  CC50 at 120 h: 41.1 µM
[12]
  EC50: 577 nM

## Cc1cc(C#N)cc(C)c1Oc1nc(NC2CCN(CC(=O)N3CCOCC3)CC2)nc2scnc12
[1]
  EC50: 35.9 µM
[13]
  EC50: 12.1 µM
[8]
  EC50: > 129 µM
[14]
  EC50: 15.1 µM
[9]
  selectivity ratio: < 1
[15]
  EC50: 3.74 µM
[10]
  selectivity ratio: 919
[16]
  EC50: 3.06 µM
[2]
  Ratio EC50: 256.1
[11]
  CC50 at 120 h: 129 µM
[3]
  Ratio EC50: 26.7
[4]
  Ratio EC50: 107.7
[5]
  Ratio EC50: 21.8
[12]
  EC50: 140 nM
[6]
  Ratio EC50: 5
[7]
  Ratio EC50: 86
[17]
  EC50: 703 nM

## Cc1cc(C#N)cc(C)c1Oc1nc(NC2CCN(CC(=O)N3CCOCC3)CC2)nc2ccccc12
[8]
  EC50: > 42.6 µM
[9]
  selectivity ratio: < 1
[10]
  selectivity ratio: 71
[11]
  CC50 at 120 h: 42.6 µM
[12]
  EC50: 597 nM

## Cc1cc(C#N)cc(C)c1Oc1nc(NC2CCN(CCN3CCOCC3)CC2)nc2c1COC2
[8]
  EC50: > 140 µM
[9]
  selectivity ratio: < 1
[10]
  selectivity ratio: 383
[11]
  CC50 at 120 h: 140 µM
[12]
  EC50: 366 nM

## COc1cc2nc(NC3CCN(CC(=O)N4CCOCC4)CC3)nc(Oc3c(C)cc(C#N)cc3C)c2cc1OC
[1]
  EC50: 0.974 µM
[13]
  EC50: > 211 µM
[8]
  EC50: > 211 µM
[14]
  EC50: > 211 µM
[9]
  selectivity ratio: < 1
[15]
  EC50: 24.8 µM
[10]
  selectivity ratio: 97
[16]
  EC50: > 211 µM
[2]
  Ratio EC50: 0.4
[11]
  CC50 at 120 h: 211 µM
[3]
  Ratio EC50: 11.4
[4]
  Ratio EC50: >96.8
[5]
  Ratio EC50: >96.8
[12]
  EC50: 2180 nM
[6]
  Ratio EC50: >96.8
[7]
  Ratio EC50: >96.8
[17]
  EC50: > 211000 nM
